pIC50: −log10 of the molar value. Some results are limits rather than exact numbers.

The target of this assay is T1, human GPR84 receptor (Homo sapiens, UniProt Q9NQS5).
T1 construct: frozen aliquots prepared by acCELLerate; host or cells: CHO-K1
T1 sequence (Q9NQS5 whole entry): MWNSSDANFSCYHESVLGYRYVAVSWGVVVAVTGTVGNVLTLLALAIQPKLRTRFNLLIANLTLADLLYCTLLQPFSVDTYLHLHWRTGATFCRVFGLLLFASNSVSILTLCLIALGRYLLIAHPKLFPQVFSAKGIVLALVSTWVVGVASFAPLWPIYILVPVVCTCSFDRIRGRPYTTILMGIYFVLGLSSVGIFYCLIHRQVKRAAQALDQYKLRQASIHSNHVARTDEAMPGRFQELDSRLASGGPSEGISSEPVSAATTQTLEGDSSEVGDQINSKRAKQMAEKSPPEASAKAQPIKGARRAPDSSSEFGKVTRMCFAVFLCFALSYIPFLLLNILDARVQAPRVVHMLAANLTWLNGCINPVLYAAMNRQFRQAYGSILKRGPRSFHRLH
As to the kind of experiment: cAMP HTRF assay for identification of cellular GPR84 antagonists. Type of assay: cell-based. As to conditions: CHO-K1 cells stably expressing human GPR84; Forskolin + agonist 6-OAU (EC80); average or median values. Summed up: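 Forskolin-stimulated CHO-K1 cells stably expressing human GPR84, agonist-suppressed cAMP measured by HTRF (665/620 ratio) after lysis. Compounds at 11 concentrations, 20 μM to 0.07 nM, duplicate; normalized to DMSO and no-agonist controls; IC50 by 4-parameter fit.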
A general note: In TR-FRET formats the signal depends on donor and acceptor labels being close together.
As for `Cc1conc1CNC(=O)c1oc2c(c1C)-c1nn(Cc3ccccn3)cc1CC2` [Example 26, 8-methyl-N-[(4-methyl-1,2-oxazol-3-yl)methyl]-2-(pyridin-2-ylmethyl)-4,5-dihydro-2H-furo[2,3-g]indazole-7-carboxamide], the pIC50 (as a rule, −log10 of the IC50, conventionally taken in molar units) was 5.92. With `Cc1noc(C)c1CNC(=O)c1oc2c(c1C)-c1nn(Cc3ccccn3)cc1CC2` [Example 27, N-[(3,5-dimethyl-1,2-oxazol-4-yl)methyl]-8-methyl-2-(pyridin-2-ylmethyl)-4,5-dihydro-2H-furo[2,3-g]indazole-7-carboxamide], the negative-log IC50 (pIC50) was 4.76. Regarding `Cc1c(C(=O)NCCN2CC(C)(C)C2=O)oc2c1-c1nn(Cc3ccccn3)cc1CC2` [Example 28, N-[2-(3,3-dimethyl-2-oxoazetidin-1-yl)ethyl]-8-methyl-2-(pyridin-2-ylmethyl)-4,5-dihydro-2H-furo[2,3-g]indazole-7-carboxamide], the pIC50 is 5.34.

With `COCCNC(=O)c1oc2c(c1C)-c1nn(Cc3ccccn3)cc1CC2` [Example 29, N-(2-methoxyethyl)-8-methyl-2-(pyridin-2-ylmethyl)-4,5-dihydro-2H-furo[2,3-g]indazole-7-carboxamide], the pIC50 was 6.54. Turning to `Cc1c(C(=O)NCc2nocc2C(=O)O)oc2c1-c1nn(Cc3ccccn3)cc1CC2` [Example 31, 3-[({[8-methyl-2-(pyridin-2-ylmethyl)-4,5-dihydro-2H-furo[2,3-g]indazol-7-yl]carbonyl}amino)methyl]-1,2-oxazole-4-carboxylic acid], the pIC50 was under 4.70. As to `Cc1c(C(=O)NCc2ncco2)oc2c1-c1nn(Cc3ccccn3)cc1CC2` [Example 32, 8-methyl-N-(1,3-oxazol-2-ylmethyl)-2-(pyridin-2-ylmethyl)-4,5-dihydro-2H-furo[2,3-g]indazole-7-carboxamide], the negative logarithm of the IC50 (pIC50) was 6.82. In the case of `Cc1c(C(=O)NC[C@@H]2CCOC2)oc2c1-c1nn(Cc3ccccn3)cc1CC2` [Example 33-1, 8-methyl-2-(pyridin-2-ylmethyl)-N-[(3S)-tetrahydrofuran-3-ylmethyl]-4,5-dihydro-2H-furo[2,3-g]indazole-7-carboxamide] it was 5.72; in that of `Cc1c(C(=O)NC[C@H]2CCOC2)oc2c1-c1nn(Cc3ccccn3)cc1CC2` [Example 33-2, 8-methyl-2-(pyridin-2-ylmethyl)-N-[(3R)-tetrahydrofuran-3-ylmethyl]-4,5-dihydro-2H-furo[2,3-g]indazole-7-carboxamide], 5.54; in that of `Cc1c(C(=O)NCc2ccn(C)n2)oc2c1-c1nn(Cc3ccccn3)cc1CC2` [Example 34, 8-methyl-N-[(1-methyl-1H-pyrazol-3-yl)methyl]-2-(pyridin-2-ylmethyl)-4,5-dihydro-2H-furo[2,3-g]indazole-7-carboxamide], 6.55. `Cc1c(C(=O)NCC2COC2)oc2c1-c1nn(Cc3ccccn3)cc1CC2` [Example 36, 8-methyl-N-(oxetan-3-ylmethyl)-2-(pyridin-2-ylmethyl)-4,5-dihydro-2H-furo[2,3-g]indazole-7-carboxamide]: the pIC50 is 5.76. As to `Cc1c(C(=O)NCC2(F)COC2)oc2c1-c1nn(Cc3ccccn3)cc1CC2` [Example 37, N-[(3-fluorooxetan-3-yl)methyl]-8-methyl-2-(pyridin-2-ylmethyl)-4,5-dihydro-2H-furo[2,3-g]indazole-7-carboxamide], the pIC50 is 5.02. `Cc1c(C(=O)Nc2ccn(C)n2)oc2c1-c1nn(Cc3ccccn3)cc1CC2` [Example 40, 8-methyl-N-(1-methyl-1H-pyrazol-3-yl)-2-(pyridin-2-ylmethyl)-4,5-dihydro-2H-furo[2,3-g]indazole-7-carboxamide]: the pIC50 was 6.17. Consider `Cc1c(C(=O)Nc2cccnc2)oc2c1-c1nn(Cc3ccccn3)cc1CC2` [Example 41, 8-methyl-N-(pyridin-3-yl)-2-(pyridin-2-ylmethyl)-4,5-dihydro-2H-furo[2,3-g]indazole-7-carboxamide], for which the negative logarithm of the IC50 (pIC50) was 5.27. Turning to `Cc1c(C(=O)NCCc2ccccc2)oc2c1-c1nn(Cc3ccccn3)cc1CC2` [Example 42, 8-methyl-N-(2-phenylethyl)-2-(pyridin-2-ylmethyl)-4,5-dihydro-2H-furo[2,3-g]indazole-7-carboxamide], the pIC50 was 5.82. In the case of `Cc1c(C(=O)Nc2ccc(C#N)cc2)oc2c1-c1nn(Cc3ccccn3)cc1CC2` [Example 43, N-(4-cyanophenyl)-8-methyl-2-(pyridin-2-ylmethyl)-4,5-dihydro-2H-furo[2,3-g]indazole-7-carboxamide], the pIC50 is 4.95. As to `Cc1c(C(=O)NC[C@@H]2CCCO2)oc2c1-c1nn(Cc3cccnc3)cc1CC2` [Example 44, 8-methyl-2-(pyridin-3-ylmethyl)-N-[(2S)-tetrahydrofuran-2-ylmethyl]-4,5-dihydro-2H-furo[2,3-g]indazole-7-carboxamide], the pIC50 was 7.74. In the case of `Cc1c(C(=O)NC[C@@H]2COCCO2)oc2c1-c1nn(Cc3cccnc3)cc1CC2` [Example 45, N-[(2R)-1,4-dioxan-2-ylmethyl]-8-methyl-2-(pyridin-3-ylmethyl)-4,5-dihydro-2H-furo[2,3-g]indazole-7-carboxamide] it was 7.54; in that of `Cc1c(C(=O)NC[C@@H]2CCCO2)oc2c1-c1nn(Cc3ccncc3)cc1CC2` [Example 46, 8-methyl-2-(pyridin-4-ylmethyl)-N-[(2S)-tetrahydrofuran-2-ylmethyl]-4,5-dihydro-2H-furo[2,3-g]indazole-7-carboxamide], 7.89; in that of `Cc1c(C(=O)NC[C@@H]2COCCO2)oc2c1-c1nn(Cc3ccncc3)cc1CC2` [Example 47, N-[(2R)-1,4-dioxan-2-ylmethyl]-8-methyl-2-(pyridin-4-ylmethyl)-4,5-dihydro-2H-furo[2,3-g]indazole-7-carboxamide], 7.72. Regarding `Cc1c(C(=O)NC[C@@H]2CCCO2)oc2c1-c1nn(CC3CC3)cc1CC2` [Example 48, 2-(cyclopropylmethyl)-8-methyl-N-[(2S)-tetrahydrofuran-2-ylmethyl]-4,5-dihydro-2H-furo[2,3-g]indazole-7-carboxamide], the pIC50 is 7.01. For the compound `Cc1c(C(=O)NC[C@@H]2COCCO2)oc2c1-c1nn(CC3CC3)cc1CC2` [Example 49, 2-(cyclopropylmethyl)-N-[(2R)-1,4-dioxan-2-ylmethyl]-8-methyl-4,5-dihydro-2H-furo[2,3-g]indazole-7-carboxamide], the pIC50 was 6.96. On to `Cc1ccc(CNC(=O)c2oc3c(c2C)-c2nn(CC4COc5ncccc5O4)cc2CC3)cc1` (centres unmarked) [Example 53], for which the pIC50 is 7.49.

As for `Cc1c(C(=O)NC[C@@H]2CCCO2)oc2c1-c1nn(Cc3cccc(C(F)(F)F)n3)cc1CC2` [Example 56, 8-methyl-N-[(2S)-tetrahydrofuran-2-ylmethyl]-2-{[6-(trifluoromethyl)pyridin-2-yl]methyl}-4,5-dihydro-2H-furo[2,3-g]indazole-7-carboxamide], the pIC50 was 7.04. For `Cc1c(C(=O)NC[C@@H]2CCCO2)oc2c1-c1nn(Cc3ccc(C(F)(F)F)cn3)cc1CC2` [Example 57, 8-methyl-N-[(2S)-tetrahydrofuran-2-ylmethyl]-2-{[5-(trifluoromethyl)pyridin-2-yl]methyl}-4,5-dihydro-2H-furo[2,3-g]indazole-7-carboxamide], the pIC50 is 6.72. Regarding `Cc1c(C(=O)NC[C@@H]2CCCO2)oc2c1-c1nn(Cc3ncc(F)cc3Cl)cc1CC2` [Example 58, 2-[(3-chloro-5-fluoropyridin-2-yl)methyl]-8-methyl-N-[(2S)-tetrahydrofuran-2-ylmethyl]-4,5-dihydro-2H-furo[2,3-g]indazole-7-carboxamide], the pIC50 is 6.62.

On to `CCOc1cnc(Cn2cc3c(n2)-c2c(oc(C(=O)NC[C@@H]4CCCO4)c2C)CC3)c(Cl)c1` [Example 59, 2-[(3-chloro-5-ethoxypyridin-2-yl)methyl]-8-methyl-N-[(2S)-tetrahydrofuran-2-ylmethyl]-4,5-dihydro-2H-furo[2,3-g]indazole-7-carboxamide], for which the pIC50 was 7.15. In the case of `Cc1c(C(=O)NC[C@@H]2CCCO2)oc2c1-c1nn(Cc3ncccc3Cl)cc1CC2` [Example 60, 2-[(3-chloropyridin-2-yl)methyl]-8-methyl-N-[(2S)-tetrahydrofuran-2-ylmethyl]-4,5-dihydro-2H-furo[2,3-g]indazole-7-carboxamide] it was 7.57; in that of `Cc1c(C(=O)NC[C@@H]2COCCO2)oc2c1-c1nn(Cc3ncccc3Cl)cc1CC2` [Example 61, 2-[(3-chloropyridin-2-yl)methyl]-N-[(2R)-1,4-dioxan-2-ylmethyl]-8-methyl-4,5-dihydro-2H-furo[2,3-g]indazole-7-carboxamide], 7.70. Turning to `Cc1cccnc1Cn1cc2c(n1)-c1c(oc(C(=O)NC[C@@H]3CCCO3)c1C)CC2` [Example 62, 8-methyl-2-[(3-methylpyridin-2-yl)methyl]-N-[(2S)-tetrahydrofuran-2-ylmethyl]-4,5-dihydro-2H-furo[2,3-g]indazole-7-carboxamide], the pIC50 is 6.96. In the case of `Cc1cccnc1Cn1cc2c(n1)-c1c(oc(C(=O)NC[C@@H]3COCCO3)c1C)CC2` [Example 63, N-[(2R)-1,4-dioxan-2-ylmethyl]-8-methyl-2-[(3-methylpyridin-2-yl)methyl]-4,5-dihydro-2H-furo[2,3-g]indazole-7-carboxamide], the pIC50 was 7.22. On to `Cc1ccc(Cn2cc3c(n2)-c2c(oc(C(=O)NC[C@@H]4CCCO4)c2C)CC3)nc1` [Example 64, 8-methyl-2-[(5-methylpyridin-2-yl)methyl]-N-[(2S)-tetrahydrofuran-2-ylmethyl]-4,5-dihydro-2H-furo[2,3-g]indazole-7-carboxamide], for which the pIC50 is 7.55. Regarding `Cc1ccc(Cn2cc3c(n2)-c2c(oc(C(=O)NC[C@@H]4COCCO4)c2C)CC3)nc1` [Example 65, N-[(2R)-1,4-dioxan-2-ylmethyl]-8-methyl-2-[(5-methylpyridin-2-yl)methyl]-4,5-dihydro-2H-furo[2,3-g]indazole-7-carboxamide], the pIC50 was 7.59.

The record behind these values is patent publication US12570666B2, “Furoindazole derivatives” (Bayer Aktiengesellschaft, priority 2019, dated 2026).
